Laboratory results taken from PMC7175153, “Testing the Pharmacokinetic Interactions of 24 Colonic Flavonoid Metabolites with Human Serum Albumin and Cytochrome P450 Enzymes” (Biomolecules, 2020).
Where two headings read alike, the source gives them in different places. One block for each compound: values may come before it.

What was measured:
CYP2C19 [1] = molecular target: T1, CYP2C19 (Homo sapiens, UniProt P33261); experiment: CYP2C19-catalyzed S-mephenytoin hydroxylation (CypExpress 2C19 kit); assay type: in vitro ADME; settings: CypExpress 2C19 kit (recombinant CYP2C19), probe S-mephenytoin, metabolite 20 μM, S-mephenytoin 5 μM
T1 construct: purchased Sigma-Aldrich
T1 sequence (P33261 whole entry): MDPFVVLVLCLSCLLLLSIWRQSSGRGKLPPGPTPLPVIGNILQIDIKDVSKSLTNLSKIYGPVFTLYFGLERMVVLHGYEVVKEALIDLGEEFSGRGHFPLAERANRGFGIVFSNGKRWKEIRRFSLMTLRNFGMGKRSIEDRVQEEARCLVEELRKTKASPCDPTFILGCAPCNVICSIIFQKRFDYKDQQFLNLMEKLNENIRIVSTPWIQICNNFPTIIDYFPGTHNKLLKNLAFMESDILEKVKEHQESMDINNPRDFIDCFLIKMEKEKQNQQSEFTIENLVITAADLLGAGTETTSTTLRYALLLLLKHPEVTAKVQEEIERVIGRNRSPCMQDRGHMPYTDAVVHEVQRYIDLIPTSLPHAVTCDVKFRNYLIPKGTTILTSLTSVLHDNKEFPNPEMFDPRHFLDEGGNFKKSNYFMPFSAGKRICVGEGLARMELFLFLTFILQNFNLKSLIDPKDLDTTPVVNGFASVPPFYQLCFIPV
From the text: Effects of microbial metabolites on CYP2C19 enzyme were examined based on their impact on CYP2C19-catalyzed 4-hydroxymephenytoin formation, employing the previously reported method without modifications.
(§1) S-mephenytoin and 4-hydroxymephenytoin (CYP2C19 assay) as well as testosterone and 6β-hydroxytestosterone (CYP3A4 assay) were quantified by HPLC-UV employing the previously described methods without modifications.

HSA = settings: cited from earlier work
[2] = molecular target: T2, human serum albumin (HSA) (Homo sapiens, UniProt P02768); experiment: HSA-ligand interaction by fluorescence spectroscopy (quenching, Stern-Volmer and Hyperquad fitting); assay type: binding; settings: for Kd: decimal log ±SEM of K in L/mol, Hyperquad non-linear fitting, PBS pH 7.4; for Effect on HSA fluorescence signal at 340 nm / LogKSV (Stern-Volmer quenching constant): HSA 2 μM; for Effect on HSA fluorescence signal at 340 nm: metabolite 0-8 μM, λex 295 nm; for LogKSV (Stern-Volmer quenching constant): decimal log ±SEM of KSV in L/mol, PBS pH 7.4, λex 295 nm, λem 340 nm
T2 construct: purchased Sigma-Aldrich
T2 sequence (P02768 25-609): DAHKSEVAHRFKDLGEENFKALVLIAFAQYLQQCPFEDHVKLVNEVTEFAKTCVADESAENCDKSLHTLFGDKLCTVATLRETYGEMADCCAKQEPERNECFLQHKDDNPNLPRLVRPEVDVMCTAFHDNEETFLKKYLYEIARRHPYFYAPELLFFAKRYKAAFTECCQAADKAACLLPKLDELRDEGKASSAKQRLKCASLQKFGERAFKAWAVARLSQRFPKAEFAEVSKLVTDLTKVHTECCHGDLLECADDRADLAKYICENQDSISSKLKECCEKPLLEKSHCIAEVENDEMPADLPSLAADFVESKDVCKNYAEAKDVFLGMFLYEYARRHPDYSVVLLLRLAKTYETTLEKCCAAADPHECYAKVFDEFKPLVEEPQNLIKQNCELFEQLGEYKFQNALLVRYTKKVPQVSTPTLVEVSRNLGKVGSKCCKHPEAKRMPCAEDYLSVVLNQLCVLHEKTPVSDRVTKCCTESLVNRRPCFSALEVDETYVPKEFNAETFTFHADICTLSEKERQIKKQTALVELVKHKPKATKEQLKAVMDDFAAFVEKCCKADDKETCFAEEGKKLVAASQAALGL
Procedure: Albumin-ligand interactions were investigated employing a Hitachi F-4500 fluorimeter (Tokyo, Japan), measurements were performed in phosphate-buffered saline (PBS, pH 7.4), in the presence of air at room temperature. Absorption spectra of the flavonoid metabolites were also recorded in PBS, applying a HALO DB-20 UV-Vis spectrophotometer (Dynamica, London, UK). Because the inner filter effect can decrease the fluorescence emission signal of albumin, fluorescence spectra were corrected using the following equation [29, 30]:Icor = Iobs × e^(Aex^+ Aem^)/2(1) where Icor means the corrected and Iobs denotes the observed emission intensities at the wavelengths used, while Aex and Aem are the absorbance values of flavonoid metabolites at the excitation and emission wavelengths applied, respectively.
HSA-ligand interactions were evaluated using fluorescence quenching studies or the intrinsic fluoresce of the metabolite (if it strongly interfered with the emission signal of albumin). In quenching studies, the emission spectrum of HSA (2 μM) was recorded in the presence of increasing concentrations of microbial metabolites (0, 2, 3, 4, 5, 6, and 8 μM), using a 295 nm excitation wavelength. Data were evaluated based on linear and non-linear fitting, employing the Stern-Volmer equation (Equation (2)) and the Hyperquad2006 program package (Protonic Software; Leeds, UK), respectively. The Stern-Volmer equation was described as I0/I = 1 + KSV × [Q](2) where I0 and I denote the fluorescence emission intensities (λex = 295 nm, λem = 340 nm) of HSA in the absence and presence of colonic metabolites, respectively. Furthermore, KSV (unit: L/mol) and [Q] (unit: mol/L) are the Stern-Volmer quenching constant and the concentration of the quencher, respectively.
The fluorescence emission spectrum of 2H4MBA (2 μM) was recorded with HSA (0, 0.5, 1, 2, 3, 4 and 5 μM), using 295 nm excitation wavelength (the excitation maximum of 2H4MBA). The binding constants (K; unit: L/mol) of albumin-ligand complexes were determined by non-linear fitting using the Hyperquad2006 program, as has been reported. During this evaluation, absorbance values and fluorescence signals of both HSA and 2H4MBA were taken into account.

HSA Site II (naproxen) = molecular target: T3, HSA Site II (naproxen) (Homo sapiens, UniProt P02768); experiment: Displacement of Site II marker naproxen from HSA by ultrafiltration; assay type: binding; settings: naproxen 1 μM, HSA 1.5 μM, metabolite 20 μM
T3 construct: purchased Sigma-Aldrich
T3 sequence (P02768 25-609): as above
From the text: (§2) Then the concentrations of site markers in the filtrates were quantified by HPLC (see in 2.5).

[3] = parameters: method as in PMID 25168218; settings: rat plasma, after Decalepis arayalpathra tuber extract; cited from earlier work
CYP2C9 [4] = settings: cited from earlier work
CYP3A4 [5] = settings: cited from earlier work
CYP2C19 [6] = tested on: CYP2C19; parameters: method as in PMID 24254844; settings: cited from earlier work
CYP3A4 [7] = molecular target: T4, CYP3A4 (Homo sapiens, UniProt P08684); experiment: CYP3A4-catalyzed testosterone hydroxylation (CypExpress 3A4 kit); assay type: in vitro ADME; settings: CypExpress 3A4 kit (recombinant CYP3A4), probe testosterone, metabolite 20 μM, testosterone 5 μM, read-out: Inhibition of CYP3A4 (decrease in metabolite formation)
T4 construct: purchased Sigma-Aldrich
T4 sequence (P08684 whole entry): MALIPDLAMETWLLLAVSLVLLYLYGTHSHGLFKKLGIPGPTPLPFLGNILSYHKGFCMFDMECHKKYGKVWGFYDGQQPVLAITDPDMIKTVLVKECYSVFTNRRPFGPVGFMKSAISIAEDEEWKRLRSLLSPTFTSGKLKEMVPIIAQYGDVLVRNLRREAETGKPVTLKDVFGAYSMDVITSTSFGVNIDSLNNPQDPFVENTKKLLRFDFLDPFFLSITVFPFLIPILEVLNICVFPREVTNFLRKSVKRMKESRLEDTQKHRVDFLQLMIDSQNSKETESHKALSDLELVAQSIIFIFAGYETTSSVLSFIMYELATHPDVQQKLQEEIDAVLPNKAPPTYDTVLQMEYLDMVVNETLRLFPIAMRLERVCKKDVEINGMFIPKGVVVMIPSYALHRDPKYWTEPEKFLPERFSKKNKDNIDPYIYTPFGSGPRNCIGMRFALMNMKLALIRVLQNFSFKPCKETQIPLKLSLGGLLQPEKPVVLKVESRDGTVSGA
Procedure: Inhibitory action of flavonoid metabolites on CYP3A4 enzyme was tested based on their effects on CYP3A4-catalyzed testosterone hydroxylation, using the previously described method without modifications.
as §1

HSA Site I (warfarin) = molecular target: T5, HSA Site I (warfarin) (Homo sapiens, UniProt P02768); experiment: Displacement of Site I marker warfarin from HSA by ultrafiltration; assay type: binding; settings: warfarin 1 μM, HSA 5 μM, metabolite 20 μM
T5 construct: purchased Sigma-Aldrich
T5 sequence (P02768 25-609): as the sequence (P02768 25-609) above
From the text: as §2

[8] = cited from earlier work
CYP2C9 [9] = molecular target: CYP2C9 (Homo sapiens, UniProt P11712); experiment: CYP2C9-catalyzed diclofenac hydroxylation (CypExpress 2C9 kit)
Chain of CYP2C9 (Homo sapiens, UniProt P11712) (P11712 whole entry): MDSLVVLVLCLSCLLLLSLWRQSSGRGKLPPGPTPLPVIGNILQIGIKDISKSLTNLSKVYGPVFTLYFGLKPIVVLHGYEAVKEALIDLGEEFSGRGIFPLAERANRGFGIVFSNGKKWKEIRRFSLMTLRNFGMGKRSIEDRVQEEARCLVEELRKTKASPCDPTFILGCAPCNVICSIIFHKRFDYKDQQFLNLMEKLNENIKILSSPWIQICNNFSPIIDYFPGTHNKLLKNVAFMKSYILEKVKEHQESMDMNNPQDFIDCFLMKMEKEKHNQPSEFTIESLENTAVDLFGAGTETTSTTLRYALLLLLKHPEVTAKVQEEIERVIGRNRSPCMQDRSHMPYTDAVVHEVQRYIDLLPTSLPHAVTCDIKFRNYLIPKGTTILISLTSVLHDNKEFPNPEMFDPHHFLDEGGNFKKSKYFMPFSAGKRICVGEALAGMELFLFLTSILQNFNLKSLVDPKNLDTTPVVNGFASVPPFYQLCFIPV
Procedure: The inhibitory effects of colonic flavonoid metabolites were examined in vitro, applying CypExpress^TM Cytochrome P450 human kits.
Inhibition of CYP2C9 enzyme was examined based on CYP2C9-catalyzed 4′-hydroxydiclofenac formation in the presence of microbial metabolites, using the previously reported method with some modifications. […] The incubations were started with the addition of the enzyme. After 120 min incubation at 700 rpm and 30 °C in a thermomixer (Eppendorf, Hamburg, Germany), the reaction was stopped with the addition of 100 μL of ice-cold methanol. After centrifugation (10 min, 14,000 g, room temperature), the concentrations of diclofenac and 4′-hydroxydiclofenac were quantified with HPLC (see in 2.5).
The metabolite formation (% of control) was depicted vs. the concentrations of inhibitors in a decimal logarithmic scale, then IC50 values were determined employing the GraphPad Prism 8 software (San Diego, CA, USA).
Diclofenac and 4′-hydroxydiclofenac (CYP2C9 assay) were quantified by HPLC-UV as it was reported previously. […] The separation was carried out using a guard column (Phenomenex Security Guard C8, 4.0 × 3.0 mm) linked to an analytical column (Agilent Eclipse C8, 150 × 4.6 mm, 5 μm) at room temperature. […] Diclofenac and 4′-hydroxydiclofenac were detected at 275 nm.

bovine serum albumin = settings: cited from earlier work
[10] = read-out: LogK (binding constant of albumin-ligand complex) (converted)

SMILES: O=C(O)c1ccc(O)c(O)c1 [34DHBA, 3,4-dihydroxybenzoic acid]
- inhibition at 20 μM (CYP2C19 [1]): < 30%
- logK of complex with HSA (HSA): 3.1

- Kd [2, 10]: 7.24 µM
- inhibition at 20 μM (CYP2C19 [1]): < 30%
SMILES: COc1ccc(C(=O)O)c(O)c1 [2H4MBA, 2-hydroxy-4-methoxybenzoic acid]
- Concentration of naproxen in the filtrate (HSA Site II (naproxen)): statistically significant (p < 0.05) but weak elevation
- logK of 2H4MBA-HSA complex (HSA; quenching study): 3.2
- Cmax [3]: 7.7 µM

- inhibition at 20 μM (CYP2C19 [1]): < 30%
SMILES: O=C(O)CNC(=O)c1ccccc1 [HIPA, hippuric acid]
- logK of complex with HSA (HSA): 3.8
- Inhibition of CYP2C9 (CYP2C9 [4]): inhibited only at very high concentrations (e.g., 100 μM)
- Inhibition of CYP3A4-catalyzed testosterone hydroxylation (CYP3A4 [5]; 1-100 μM range): did not show relevant inhibition
- Inhibition of CYP3A4-catalyzed testosterone hydroxylation (CYP3A4 [5]): considerable inhibition only above 50 μM concentrations

SMILES: O=C(O)/C=C/c1ccc(O)cc1 [4-coumaric acid]
- Effect on CYP3A4 enzyme (CYP3A4 [5]): did not influence

SMILES: O=C(O)c1ccc(O)cc1 [4HBA, 4-hydroxybenzoic acid]
- logK of complex with HSA (HSA): no interaction
- Inhibition of CYP2C9 (CYP2C9 [4]): did not inhibit
- Inhibition of CYP2C19 (CYP2C19 [6]): did not inhibit
- Effect on CYP3A4 enzyme (CYP3A4 [5]): did not influence

- inhibition at 20 μM (CYP3A4 [7]): ~65%
SMILES: Oc1cccc(O)c1 [RES, resorcinol]

SMILES: O=C(O)c1ccc(O)cc1O [24DHBA, 2,4-dihydroxybenzoic acid]
- logK of complex with HSA (HSA): 3.2

SMILES: Oc1cccc(O)c1O [PYR, pyrogallol]
- Effect on HSA fluorescence signal at 340 nm [2]: significant decrease
- Kd ([2]; LogK (binding constant of albumin-ligand complex)): 20.9 µM
- LogKSV (Stern-Volmer quenching constant) [2]: 4.64 ± 0.03
- Concentration of warfarin in the filtrate (HSA Site I (warfarin)): significantly increased
- logK of PYR-HSA complex (HSA): 4.5
- Peak plasma concentration ([8]; healthy humans, black tea extract 2650 mg, plasma not treated with sulfatase): approximately 7 μM

SMILES: O=c1c(-c2ccc(O)cc2)coc2cc(O)ccc12 [daidzein]
- Inhibition of CYP2C9-catalyzed hydroxylation of diclofenac (CYP2C9 [4]): inhibits

- Effect on HSA fluorescence signal at 340 nm [2]: significant decrease
- Kd [2, 10]: 8.32 µM
- LogKSV (Stern-Volmer quenching constant) [2]: 4.99 ± 0.01
- Concentration of warfarin in the filtrate (HSA Site I (warfarin)): significantly increased
- IC50 (CYP2C9 [9]): 6.6 µM
- α (IC50 of the inhibitor divided by the IC50 of the positive control) (CYP2C9 [9]; human, 120 min, pH 7.5): 5.00
- inhibition at 20 μM (CYP2C19 [1]): < 30%
- inhibition at 20 μM (CYP3A4 [7]): < 30%
SMILES: CC(C(=O)c1ccc(O)cc1O)c1ccc(O)cc1 (stereo not shown) [DESMA, 1-(2,4-dihydroxyphenyl)-2-(4-hydroxyphenyl)-1-propanone]
- Plasma concentrations ([8]; after dietary intake or high consumption of soy products, low nanomolar upward): ≤ 0.5 µM
- Peak plasma concentration ([8]; after ingestion of 60 g baked soybean powder): 300−500 nM

SMILES: O=C(O)/C=C/c1cccc(O)c1 [3CA, 3-coumaric acid]
- Effect on HSA fluorescence signal at 340 nm [2]: significant decrease
- Kd [2, 10]: 72.4 µM
- LogKSV (Stern-Volmer quenching constant) [2]: 4.13 ± 0.02
- logK of 3CA-bovine serum albumin complex (bovine serum albumin): 4.1
- Concentration in the circulation [8]: low nanomolar concentrations

SMILES: O=C(O)CCc1ccc(O)cc1 [34HPPA, 3-(4-hydroxyphenyl)propionic acid]
- Inhibition of CYP2C9 (CYP2C9 [4]): did not inhibit
- Inhibition of CYP2C19 (CYP2C19 [6]): did not inhibit
- Effect on CYP3A4 enzyme (CYP3A4 [5]): did not influence

- Effect on HSA fluorescence signal at 340 nm [2]: significant decrease
- Kd [2, 10]: 27.5 µM
- LogKSV (Stern-Volmer quenching constant) [2]: 4.39 ± 0.06
- inhibition at 20 μM (CYP3A4 [7]): < 30%
SMILES: CC(=O)c1ccc(O)cc1O [24DHAP, 2,4-dihydroxyacetophenone]

SMILES: COc1cc(C(=O)O)ccc1O [4-hydroxy-3-methoxy-benzoic acid]
- Cmax ([8]; healthy human volunteers, orally administered): 5.7 µM

SMILES: COc1cc(CC(=O)O)ccc1O [3M4HPAA, 3-methoxy-4-hydroxyphenylacetic acid]
- logK toward bovine serum albumin (bovine serum albumin): 3.8

- inhibition at 20 μM (CYP3A4 [7]): ~40%
SMILES: Oc1cc(O)cc(O)c1 [PHLO, phloroglucinol]
- Peak plasma concentration ([8]; healthy human volunteers, oral 160 mg PHLO): approximately 5 μM
